# In patent publication US20260176320A1, “MODULATORS OF G-PROTEIN COUPLED RECEPTORS” (priority 2018, published 2026):
# Like-named read-outs stand apart in the source and are kept apart here. Numbered stars: 1 amine (or outer) side, 2 acyl side, 3 side chain; on linkers, the order of the positions; unused ones are H or OH. Square brackets hold non-standard residues; d marks the D form. Side chains are listed from the residue outwards. Peptide text beside a SMILES is read from it. * marks the point of attachment. γGlu = O=C(O)[C@H](CCC(=O)[*:2])N[*:1]; X2 = O=C(CSCC(=O)*)NCCN1C(=O)CSC1=O; Palmitoyl = CCCCCCCCCCCCCCCC(=O)*; Aib = CC(C)(N)C(=O)O
# Key:
# GLP-1R = GLP-1R (Homo sapiens, UniProt P43220); assay: HitHunter cAMP assay (GLP-1R); type: cell-based; settings: cAMP; for Emax: read-out: (Emax) GLP-1R; for EC50: read-out: EC50 GLP-1R/nM
# Chain of GLP-1R (P43220 24-463): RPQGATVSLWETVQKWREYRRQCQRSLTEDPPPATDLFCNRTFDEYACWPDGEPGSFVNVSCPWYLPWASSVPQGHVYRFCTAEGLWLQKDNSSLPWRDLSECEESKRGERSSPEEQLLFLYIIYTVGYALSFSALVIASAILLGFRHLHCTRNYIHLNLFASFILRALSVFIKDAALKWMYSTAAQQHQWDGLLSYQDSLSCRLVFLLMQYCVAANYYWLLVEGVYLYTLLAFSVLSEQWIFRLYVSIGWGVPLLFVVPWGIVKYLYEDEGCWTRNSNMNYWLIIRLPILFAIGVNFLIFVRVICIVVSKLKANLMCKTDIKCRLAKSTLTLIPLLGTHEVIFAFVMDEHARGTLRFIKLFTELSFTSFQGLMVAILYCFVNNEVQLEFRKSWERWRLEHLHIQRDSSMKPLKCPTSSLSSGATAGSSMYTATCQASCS
# How it was run: (§1)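 Suspension cells (10,000/well) in HBSS with 10 mM HEPES, 625 μM IBMX, 0.2% BSA exposed to 22-point 2-fold agonist series in duplicate for 30 min at room temperature. cAMP measured by antibody immunocompetition with overnight development, luminescence read-out.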
# GIP-R = molecular target: T1, GIP-R (Homo sapiens, UniProt P48546); assay: HitHunter cAMP assay (GIP-R); type: cell-based; settings: cAMP; for Emax: read-out: (Emax) GIP-R; for EC50: read-out: EC50 GIP-R/nM
# T1 sequence (P48546 22-466): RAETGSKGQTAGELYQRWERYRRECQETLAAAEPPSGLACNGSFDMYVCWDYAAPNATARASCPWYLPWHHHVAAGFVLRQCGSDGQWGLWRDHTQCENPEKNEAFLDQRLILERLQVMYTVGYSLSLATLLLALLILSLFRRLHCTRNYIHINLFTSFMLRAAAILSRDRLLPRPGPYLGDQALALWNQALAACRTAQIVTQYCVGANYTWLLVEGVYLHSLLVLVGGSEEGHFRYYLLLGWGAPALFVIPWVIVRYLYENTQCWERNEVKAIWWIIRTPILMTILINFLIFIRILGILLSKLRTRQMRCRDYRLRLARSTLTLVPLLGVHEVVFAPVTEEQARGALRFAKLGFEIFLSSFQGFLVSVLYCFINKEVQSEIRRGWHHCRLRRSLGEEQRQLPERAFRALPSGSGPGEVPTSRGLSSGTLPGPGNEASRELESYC
# How it was run: as §1
Structure (SMILES),Emax (GLP-1R; Table 3) [%],EC50 (GLP-1R; Table 3) [nM],Emax (GLP-1R; Table 3A) [%],EC50 (GLP-1R; Table 3A) [nM],Emax (GIP-R; Table 3) [%],EC50 (GIP-R; Table 3) [nM],Emax (GIP-R; Table 3A) [%],EC50 (GIP-R; Table 3A) [nM]
CCCCCCCCCCCCCCCC(=O)N[C@@H](CCC(=O)NCCCC[C@H](NC(=O)[C@H](CO)NC(=O)[C@@H]1CCCN1C(=O)[C@@H]1CCCN1C(=O)[C@@H]1CCCN1C(=O)[C@H](C)NC(=O)CNC(=O)[C@H](CO)NC(=O)[C@H](CO)NC(=O)[C@@H]1CCCN1C(=O)CNC(=O)CNC(=O)[C@H](C)NC(=O)[C@H](CC(C)C)NC(=O)[C@H](CC(C)C)NC(=O)[C@H](Cc1c[nH]c2ccccc12)NC(=O)[C@H](CC(N)=O)NC(=O)[C@@H](NC(=O)[C@H](Cc1ccccc1)NC(=O)[C@H](CCC(=O)O)NC(=O)C(C)(C)NC(=O)[C@H](C)NC(=O)[C@H](C)NC(=O)[C@H](CCC(N)=O)NC(=O)[C@H](CCCCN)NC(=O)[C@H](CC(=O)O)NC(=O)[C@H](CC(C)C)NC(=O)[C@H](Cc1ccc(O)cc1)NC(=O)[C@@H](NC(=O)[C@H](CO)NC(=O)[C@H](Cc1ccc(O)cc1)NC(=O)[C@H](CC(=O)O)NC(=O)[C@H](CO)NC(=O)[C@@H](NC(=O)[C@H](Cc1ccccc1)NC(=O)[C@@H](NC(=O)CNC(=O)[C@H](CCC(=O)O)NC(=O)CSCC(=O)NCCN1C[C@@H](O)CC1=O)[C@@H](C)O)[C@@H](C)O)[C@@H](C)CC)C(C)C)C(N)=O)C(=O)O [Compound 45],100,0.1 to 1,100,0.1 to 1,42,1 to 10,42,1 to 10
CCCCCCCCCCCCCCCC(=O)N[C@@H](CCC(=O)NCCCC[C@H](NC(=O)CNC(=O)[C@H](CCCNC(=N)N)NC(=O)CNC(=O)[C@H](C)NC(=O)[C@H](CC(C)C)NC(=O)[C@H](CC(C)C)NC(=O)[C@H](Cc1c[nH]c2ccccc12)NC(=O)[C@H](CC(N)=O)NC(=O)[C@@H](NC(=O)[C@H](Cc1ccccc1)NC(=O)[C@H](CCC(=O)O)NC(=O)C(C)(C)NC(=O)[C@H](C)NC(=O)[C@H](C)NC(=O)[C@H](CCC(N)=O)NC(=O)[C@H](CCCCN)NC(=O)[C@H](CC(=O)O)NC(=O)[C@H](CC(C)C)NC(=O)[C@H](Cc1ccc(O)cc1)NC(=O)[C@@H](NC(=O)[C@H](CO)NC(=O)[C@H](Cc1ccc(O)cc1)NC(=O)[C@H](CC(=O)O)NC(=O)[C@H](CO)NC(=O)[C@@H](NC(=O)[C@H](Cc1ccccc1)NC(=O)[C@@H](NC(=O)CNC(=O)[C@H](CCC(=O)O)NC(=O)CSCC(=O)NCCN1C(=O)CSC1=O)[C@@H](C)O)[C@@H](C)O)[C@@H](C)CC)C(C)C)C(=O)NCC(=O)N1CCC[C@H]1C(=O)N[C@@H](CO)C(=O)N[C@@H](CO)C(=O)NCC(=O)N[C@@H](C)C(=O)N1CCC[C@H]1C(=O)N1CCC[C@H]1C(=O)N1CCC[C@H]1C(=O)N[C@@H](CO)C(N)=O)C(=O)O [Compound 198] (X2-EGTFTSDYSIYLDKQAA[Aib]EFVNWLLAGRGK([γGlu-Palmitoyl])GPSSGAPPPS-NH2),,,95,10 to 100,,,81,10 to 100
CCCCCCCCCCCCCCCC(=O)N[C@@H](CCC(=O)NCCCC[C@H](NC(=O)[C@H](CO)NC(=O)[C@@H]1CCCN1C(=O)[C@@H]1CCCN1C(=O)[C@@H]1CCCN1C(=O)[C@H](C)NC(=O)CNC(=O)[C@H](CO)NC(=O)[C@H](CO)NC(=O)[C@@H]1CCCN1C(=O)CNC(=O)CNC(=O)[C@H](C)NC(=O)[C@H](CC(C)C)NC(=O)[C@H](CC(C)C)NC(=O)[C@H](Cc1c[nH]c2ccccc12)NC(=O)[C@H](CC(N)=O)NC(=O)[C@@H](NC(=O)[C@H](Cc1ccccc1)NC(=O)[C@H](CCC(=O)O)NC(=O)C(C)(C)NC(=O)[C@H](C)NC(=O)[C@H](C)NC(=O)[C@H](CCC(N)=O)NC(=O)[C@H](CCCCN)NC(=O)[C@H](CC(=O)O)NC(=O)[C@H](CC(C)C)NC(=O)[C@H](Cc1ccc(O)cc1)NC(=O)[C@@H](NC(=O)[C@H](CO)NC(=O)[C@H](Cc1ccc(O)cc1)NC(=O)[C@H](CC(=O)O)NC(=O)[C@H](CO)NC(=O)[C@@H](NC(=O)[C@H](Cc1ccccc1)NC(=O)[C@@H](NC(=O)CNC(=O)[C@H](CCC(=O)O)NC(=O)CSCC(=O)NCCN1NCCC1=O)[C@@H](C)O)[C@@H](C)O)[C@@H](C)CC)C(C)C)C(N)=O)C(=O)O [Compound 58],108,0.1 to 1,108,0.1 to 1,26,1 to 10,26,10 to 100
